Reference: patent US4364926A, “Novel alkaline protease M3 method for the preparation thereof and dental caries-prophylactic composition containing the same” (Dainippon Pharmaceutical Co., Ltd., priority 1980, dated 1982)
Counter-ions that a name gives are not always drawn. Like-named read-outs stand apart in the source and are kept apart here.

Tested on: alkaline protease M3 from Streptomyces globisporus B-1829 strain (ATCC 21553)
Experiment: Protease activity (casein hydrolysis) in the presence of additives
Assay type: biochemical
[1] = additive 10^-3 M, protease activity, no additive = 100

SMILES	Relative activity (%) [1]	Relative activity (%)	other results
O=C(O)CCC(=O)O [Succinic acid]	113%		
O=C(O)CI [Iodoacetic acid]		118%	Effect by additive on activity (in words): substantially not inhibited; Inhibition of protease activity (in words): substantially not inhibited
O=C1O[C@H]([C@@H](O)CO)C(O)=C1O [L-Ascorbic acid]	110%		
NNC(N)=O [Semicarbazide hydrochloride]		116%	
NC(N)=S [Thiourea]		119%	
O=C1CCC(=O)N1Br [NBS, N--Bromosuccinimide]	85%		Relative activity (%) (additive 10^-4 M, protease activity, no additive = 100): 0%; Inhibition of protease activity (in words) (additive in an amount of 10^-4 M): completely inhibited
